Paper PMC9598926, “Design and Synthesis of (Z)-5-(Substituted benzylidene)-3-cyclohexyl-2-thioxothiazolidin-4-one Analogues as Anti-Tyrosinase and Antioxidant Compounds: In Vitro and In Silico Insights” (Antioxidants, 2022)

Tested on: tyrosinase
Assay: Western blot of cytosolic tyrosinase in α–MSH/IBMX stimulated B16F10 cells
Type: cell-based, murine
Conditions: 5, 10, 20 µM
Description: 2.15. Extraction of Cytosolic and Nuclear Proteins from Cells
Western blotting was used to determine tyrosinase and MITF protein levels. Briefly, B16F10 cells were seeded in 60 mm culture dishes in the presence or absence of α–MSH (1 µM) plus IBMX (200 µM) with or without analog 3 (5, 10, and 20 µM for final concentrations) for 24 h, washed twice with ice-cold PBS and centrifuged for 10 min at 12,000× g. Cell pellets were suspended in 10 mM Tris (pH 8.0) containing 0.1% NP-40, 1 mM DTT, 1.5 mM MgCl2, 1 mM PMSF, and protease inhibitors (GenDEPOT, Barker, TX, USA), incubated on ice for 15 min, and centrifuged for 10 min at 12,000× g at 4 °C. Supernatants were used as cytosolic fractions. […] The protein concentrations were determined using a bicinchoninic acid (BCA)™ assay kit (Pierce, Rockford, IL, USA). […]
Lysed protein samples from cells were boiled for 10 min in sample-loading buffer (0.1% bromophenol blue, 25% glycerol, 60 mM Tris-HCl (pH 6.8), 2% SDS, and 0.5% β-mercaptoethanol) at a volume ratio of 1:4. […] Immunoreactive proteins were detected using the enhanced chemiluminescence (ECL) detection reagent in the SuperSignal® West Pico Chemiluminescent Substrate kit (Advansta, San Jose, CA, USA). Western blot bands were visualized using a Davinch-Chemi imager™ (Davinch-K, Seoul, Korea), and quantification was conducted by densitometric analysis using CS analyzer software ver. […]

In the case of O=C1/C(=C/c2ccc(O)cc2O)SC(=S)N1C1CCCCC1 [Analog 3, (Z)-3-Cyclohexyl-5-(2,4-dihydroxybenzylidene)-2-thioxothiazolidin-4-one], the “effect on α–MSH/IBMX-induced increase in tyrosinase expression (protein, cytosol)” value is reported as “significantly and concentration-dependently reduced”.
